Values of other authors as cited in patent publication US9554577B2, “Herbicidal formulation” (priority 2011, dated 2017).

What was measured:
[1] = chlorinated hydrocarbons and aromatic solvents such as methylene chloride, acetone and xylene

SMILES: CCC(CC)Nc1c([N+](=O)[O-])cc(C)c(C)c1[N+](=O)[O-] [Pendimethalin, n-(1-ethylpropyl)-3,4-dimethyl-2,6-dinitrobenzenamine]
- solubility in organic solvents [1]: soluble
- stability under acidic and alkaline conditions: stable
